Source: patent publication US20170209413A1, “USE OF ASPARAGUSIC ACID AND DERIVATIVES THEREOF TO TREAT SYMPTOMS AND DISORDERS OF NEUROLOGICAL DISEASE” (priority 2016, published 2017)

How the values were obtained:
[1] = test system: shaking from Parkinson disease; test: hand writing skill test for relief of the shaking from Parkinson disease in one patient; type: in vivo, human
Method: A patient diagnosed with Parkinson's disease and in need of treatment by the methods disclosed herein was administered compositions comprising the compounds disclosed herein. The patient had been diagnosis with Parkinson's disease by two medical doctors, the family doctor and a neurologist. They had taken L-Dopa for over a year. The patient informed their doctors that they were no longer taking L-Dopa. They took nothing for their Parkinson's Disease for almost a year before beginning to take asparagusic acid.
The test for relief of the shaking from Parkinson disease was the patient's hand writing skill. Prior to treatment with asparagusic acid the patient could not write their name. […] Normally the ability to write was diminished within 12 hours, but their varied.
The asparagus top third was cut from the stalk and weighed. 50 to 100 grams was used per treatment. The tops were steamed for a short period of time. This was typically done by placing the asparagus tops in a pie plate and covered. No water was added. After a short heating period, for example heating in a microwave for 44 seconds on high, the asparagus is “self” steamed from water in the plant and may substantially help in the formation of asparagusic acid from asparaptine. […] Excess heating will decompose asparagusic acid and will likely form a dihydro byproduct by splitting the disulfide linkage.
A preparation as described above was taken at least two hours after eating. The asparagus was consumed immediately after heating with salt and taken with simple non-caffeine liquids such as water and white wine. No further food was consumed for at least an hour. […] One exception was found. […] It is noted that raw eggs contain many sulfur compounds.

[2] = boiling for 30 minutes; rearranges to 1,2,3-trithiane-5-carboxylic acid and 1,2-dithiacylopentene; cited from earlier work

Structure (SMILES) | effect on shaking, lipoic acid ([1]; 250 mg tablet, same manner in regards to food consumption as Example 1) | stability during cooking [2] | time until ability to write was diminished ([1]; one Parkinson's patient, after treatment, varied) | relief of the shaking from Parkinson disease (patient's hand writing skill) ([1]; one Parkinson's patient, 50 to 100 grams asparagus tops, steamed a short time (microwave 44 seconds), taken at least two hours after eating, no food for at least an hour)
O=C(O)CCCC[C@@H]1CCSS1 (racemic) [lipoic acid, reference compound] | no effect | – | – | –
O=C(O)C1CSSC1 [asparagusic acid, 1,2-dithiolane-4-carboxylic acid] | – | not vary stable | ≤ 12 h | could easily write their name in a flowing easy manner
